Test system: PBL
Experiment: cells
Conditions: Homo sapiens, Blood
Description: 50% inhibition of T-cell proliferation induced by anti-CD3/anti-CD28 co-stimulation in human peripheral blood leukocytes (PBLs).

| Compound | IC50 [nM] |
| --- | --- |
| COc1cccc2nc(Nc3c(C)cccc3Cl)c3cncn3c12 | 2300 |
| CCNc1ccc2nc(Nc3c(C)cccc3Cl)c3cncn3c2c1 | 2200 |
| Cc1cccc(Cl)c1Nc1nc2ccc(NCCN3CCOCC3)cc2n2cncc12 | 1300 |
| Cc1cccc(Cl)c1Nc1nc2cc(N3CCNCC3)ccc2n2cncc12 | 1000 |
| CCN(CC)c1ccc2nc(Nc3c(C)cccc3Cl)c3cncn3c2c1 | 2600 |
| Cc1cccc(Cl)c1Nc1nc2cc(O)c(O)cc2n2cncc12 | > 9000 |
| Cc1cccc(Cl)c1Nc1nc2ccc(NCCN(C)C)cc2n2cncc12 | 880 |
| CC(=O)Nc1ccc2nc(Nc3c(C)cccc3Cl)c3cncn3c2c1 | 1400 |
| Brc1ccccc1Nc1nc2ccccc2n2cncc12 | 17000 |
| COc1ccc2c(c1)nc(Nc1c(C)cccc1Cl)c1cncn12 | 2600 |
| Cc1cccc(Cl)c1Nc1nc2ccc(N)cc2n2cncc12 | 1600 |
| Cc1cccc(Cl)c1Nc1nc2cc3c(cc2n2cncc12)OCO3 | 2000 |
| Cc1cccc(Cl)c1Nc1nc2ccc(N(C)C)cc2n2cncc12 | 2000 |
| Cc1cccc(Cl)c1Nc1nc2cc3c(cc2n2cncc12)OCCO3 | 2200 |
| Cc1cccc(Cl)c1Nc1nc2cc(N3CCOCC3)ccc2n2cncc12 | 1000 |
| CCN(CC)c1ccc2c(c1)nc(Nc1c(C)cccc1Cl)c1cncn12 | 1700 |
| COc1cc2nc(Nc3c(C)cccc3C)c3cncn3c2cc1OC | 1100 |
| COc1ccc2nc(Nc3c(C)cccc3Cl)c3cncn3c2c1 | 1400 |

The next molecules have a lower IC50 than those just listed; values first:

| IC50 [nM] | Compound |
| --- | --- |
| 130 | COc1cc2c(cc1NCCN(C)C)nc(Nc1c(C)cccc1Cl)c1cnc(C)n12 |
| 470 | COc1cc2c(cc1OCCN1CCOCC1)nc(Nc1c(C)cccc1Cl)c1cncn12 |
| 270 | CCN1CCN(c2ccc3nc(Nc4c(C)cccc4Cl)c4cncn4c3c2)CC1 |
| 720 | Cc1cccc(Cl)c1Nc1nc2cc(N3CCN(C)CC3)ccc2n2cncc12 |
| 190 | COc1cc2c(cc1NCCN(C)C)nc(Nc1c(C)cccc1Cl)c1cncn12 |
| 240 | Cc1cccc(Cl)c1Nc1nc2ccc(N3CCN(C)CC3)cc2n2cncc12 |
| 340 | Cc1cccc(Cl)c1Nc1nc2ccc(N3CC(C)NC(C)C3)cc2n2cncc12 (configuration not stated) |
| 480 | Cc1cccc(Cl)c1Nc1nc2cc(NCCCN(C)C)ccc2n2cncc12 |
| 530 | Cc1cccc(Cl)c1Nc1nc2ccc(N3CCN(C=O)CC3)cc2n2cncc12 |
| 380 | Cc1cccc(Cl)c1Nc1nc2ccc(N3CCNCC3)cc2n2cncc12 |
| 540 | Cc1cccc(Cl)c1Nc1nc2ccc(N3CCCN(C)CC3)cc2n2cncc12 |
| 520 | Cc1cccc(Cl)c1Nc1nc2cc(NCCN(C)C)ccc2n2cncc12 |
| 780 | Cc1cccc(Cl)c1Nc1nc2ccc(N3CCOCC3)cc2n2cncc12 |
| 240 | COc1cc2c(cc1NCCN(C)C)nc(Nc1c(F)cccc1Cl)c1cncn12 |
| 280 | COc1cc2c(cc1NCCN1CCOCC1)nc(Nc1c(C)cccc1Cl)c1cncn12 |
| 570 | Cc1cccc(Cl)c1Nc1nc2cc(N3CC(C)NC(C)C3)ccc2n2cncc12 (configuration not stated) |
| 760 | COc1cc2nc(Nc3c(C)cccc3Cl)c3cncn3c2cc1N1CC(C)NC(C)C1 (configuration not stated) |
| 760 | Cc1cccc(Cl)c1Nc1nc2ccc(NCCCN3CCOCC3)cc2n2cncc12 |
| 670 | COc1cc2nc(Nc3c(C)cccc3Cl)c3cncn3c2cc1OC |
